Experimental data as given in US12605377B2, “Methods of treating fibrosis” (Endeavor Biomedicines, Inc., priority 2020, dated 2026).
Where a name gives a salt, the structure may show the parent alone. Read-outs that look alike come from different tables or passages of the source.

Experiments:
[1] = tested on: kidney fibrosis; details: in vivo; cited from earlier work
[2] = tested on: mGli1; assay: PK/PD GIi1 expression in Balb/c surrogate tissues after single oral dose (qRT-PCR TaqMan); format: in vivo, Balb/c mouse
Description: (§1) Following the predetermined dosing period, surrogate tissues (lung, skin, and cerebellum) from Balb/C mouse and tumor from Ptch^−/+×p53^−/− transgenic tumor model were harvested, processed, and evaluated for GIi1 expression levels using a quantitative reverse transcription polymerase chain reaction TaqMan® assay. […] Given the parallel PD effects, skin GIi1 is an appropriate PD surrogate for lung tissue GIi1.

[3] = tested on: Brain Tumor mGli1; assay: PK/PD GIi1 expression in Ptch−/+ × p53−/− transgenic tumor model (qRT-PCR TaqMan); format: in vivo, mouse; details: PTCH Tg, single oral dose
Description: as §1

[4] = tested on: Hh signaling activity in mouse C3H10T½ cells; assay: Gli-Luciferase activity in C3H10T½ cells stimulated with SHh-CM; format: cell-based; details: n=8, geometric mean±SE
[5] = tested on: Hh signaling activity in human Daoy cells; assay: GIi1 transcript levels in Daoy tumor cell line stimulated with SHh-CM (branched chain DNA assay); format: cell-based; details: GIi1 mRNA, n=8, geometric mean±SE
[6] = cited from earlier work; for predominant AE causing discontinuation: comparator drugs
[7] = tested on: IPF patients; details: cited from earlier work; for effect on FVC in clinical trials (FIG. 1): IPF patients, 24 weeks (GLPG1690 12 weeks), vismodegib in combination with pirfenidone
[8] = clinical pharmacokinetics; details: human, in vivo
[9] = clinical safety and tolerability (MTD, adverse events, discontinuations)
Procedure: (§2) Taldegib was administered to subjects at doses of 50, 100, 200, 400 and 600 mg.

[10] = tested on: α-SMA protein expression (myofibroblasts); assay: bleomycin-induced pulmonary fibrosis model, anti-α-SMA immunohistochemistry; details: 5 mg/kg orally daily from day seven, pathology on day 21
Description: FIG. 4B depicts the percent α-SMA positive area from the individual mice and the mean and standard deviation for the treatment groups.
A Microsprayer® Aerosolizer was used to perform intratracheal administration of bleomycin. By administering bleomycin via Microsprayer® Aerosolizer, it can be evenly exposed to the lungs and thus, develops a reproducible and uniform pathology.
Pathology of animals was examined on day 21 of the study.

[11] = Biopharmaceutics Classification System (BCS) class; format: physicochemical
[12] = tested on: GIi1 mRNA; assay: GIi1 mRNA inhibition in skin biopsies of clinical subjects; format: in vivo, human
Procedure: as §2

[13] = tested on: Hh; details: Zhu et al. 2019; read-out: ID50 for Hh inhibition; cited from earlier work
[14] = tested on: GIi1 activity; details: Daoy cells, assay of U.S. Pat. No. 9,000,023; cited from earlier work
[15] = tested on: IPF; assay: Phase 2 multi-center study of safety and efficacy in subjects with IPF; format: in vivo, human
Description: Quantitative (% and mL) and qualitative (improved, same, worse) assessment of lung fibrosis by HRCT will be performed at Screening and Week 12. The Screening HRCT will serve as the baseline for study HRCT assessments.

[16] = tested on: lung fibrosis
[17] = oral bioavailability; details: in vivo
Description: This molecule has been in over 192 human subjects and developed initially with the intention of treating oncologic indications with a focus on lung cancer and basal cell carcinoma (BCC). Although primarily cancer patients, these studies allowed for a preliminary understanding of dose and tolerability.

[18] = tested on: GIi1 mRNA; details: vismodegib at its MTD of 150 mg; cited from earlier work
[19] = Balb/c, cerebellum, single oral dose
[20] = after sufficient step-down of dosage, if any

Structure (SMILES): CC1=C2C[C@H]3[C@@H](CC[C@@H]4C[C@H](NS(C)(=O)=O)CC[C@@]43C)[C@@H]2CC[C@@]2(C1)O[C@@H]1C[C@H](C)CN[C@H]1[C@H]2C [IPI-926]
- efficacy in treating kidney fibrosis [1]: ineffective

Structure (SMILES): CN(C(=O)c1ccc(F)cc1C(F)(F)F)C1CCN(c2nnc(-c3ccnn3C)c3ccccc23)CC1 [Taladegib hydrochloride]
- Cerebellum mGli1 TEC50 [2, 19]: 230 ng/mL
- Cerebellum mGli1 TED50 [2, 19]: 2.2 mg/kg
- Lung mGli1 TEC50 ([2]; Balb/c, lung, single oral dose): 264 ± 114 ng/mL
- Lung mGli1 TED50 ([2]; Balb/c, lung, single oral dose): 2.6 ± 0.6 mg/kg
- Skin mGli1 TEC50 ([2]; Balb/c, skin, single oral dose): 84 ng/mL
- Skin mGli1 TED50 ([2]; Balb/c, skin, single oral dose): 1.1 mg/kg
- duration of sustained target inhibition ([2]; time course, single oral dose 8 mg/kg): at least 24 hours
- Brain Tumor mGli1 TEC50 [3]: 63.0 ng/mL
- Brain Tumor mGli1 TED50 [3]: 1.0 mg/kg
- IC50 [4]: 11.2 ± 5.33 nM
- IC50 [5]: 2.22 ± 1.14 nM

Structure (SMILES): CC1=C2C[C@H]3[C@@H](CC=C4C[C@@H](O)CC[C@@]43C)[C@@H]2CC[C@]12O[C@@H]1C[C@H](C)CN[C@H]1[C@H]2C [cyclopamine]
- efficacy in treating kidney fibrosis [1]: ineffective

Structure (SMILES): COC(=O)c1ccc2c(c1)NC(=O)/C2=C(\Nc1ccc(N(C)C(=O)CN2CCN(C)CC2)cc1)c1ccccc1 [nintedanib]
- predominant AE causing discontinuation [6]: diarrhea
- effect on FVC in clinical trials (FIG. 1) [7]: only able to slow the deterioration of FVC

Structure (SMILES): Cc1ccc(=O)n(-c2ccccc2)c1 [pirfenidone]
- predominant AE causing discontinuation [6]: nausea
- effect on FVC in clinical trials (FIG. 1) [7]: only able to slow the deterioration of FVC

Structure (SMILES): CN(C(=O)c1ccc(F)cc1C(F)(F)F)C1CCN(c2nnc(-c3ccnn3C)c3ccccc23)CC1 [taladegib]
- half-life ([8]; across all doses, estimated, read-out: mean half-life (t½) (converted)): ~960 min
- Tmax ([8]; read-out: median tmax): 2 h
- most commonly observed adverse events (AEs) ([9]; human, in vivo): nausea, diarrhea, dysgeusia, fatigue, decreased appetite, alopecia, vomiting, muscle spasm, constipation, weight decrease, and headache
- occurrence of muscle spasms ([9]; human, in vivo): 40%
- predominant AE causing discontinuation ([9]; human, in vivo): no prevalent AE
- clinically established MTD ([9]; taladegib): 400 mg
- reduction of α-SMA protein expression [10]: approximately 40%
- BCS class [11]: class II (high permeability, low solubility)
- pharmacological activity (BED: inhibition >50%) ([12]; all dose levels tested, 50-600 mg): pharmacologically active at all dose levels tested
- inhibition of GIi1 mRNA ([12]; dose 50 mg): greater than 80%
- GIi1 mRNA inhibition in skin ([12]; dose 400 mg (MTD)): > 85%
- inhibition of Gli in skin biopsies ([12]; doses of 50, 100, 200, 400 and 600 mg, most patients): > 80%
- IC50 [13]: 2.26 nM
- IC50 [14]: ~2.4 nM
- serious drug-related adverse events [15, 20]: did not experience serious drug-related adverse events
- efficacy endpoints ([15]; at 12 weeks): stabilization or improvement
- dose limiting toxicities ([15]; at 12 weeks, starting at 200 mg/day): no or limited dose limiting toxicities are observed
- durability of the response ([15]; at 18 weeks): durability of the response is observed
- serious drug-related adverse events [16, 20]: did not experience serious drug-related adverse events
- efficacy endpoints ([16]; at 24 weeks, starting at 200 mg daily): stabilization or improvement
- bioavailability [17]: 72 to 91%

Structure (SMILES): CS(=O)(=O)c1ccc(C(=O)Nc2ccc(Cl)c(-c3ccccn3)c2)c(Cl)c1 [vismodegib]
- predominant AE causing discontinuation [6]: muscle spasms
- discontinuation of participants ([6]; single arm IPF study, combination with pirfenidone, severe muscle spasms): over 40%
- Muscle Spasm Adverse Event Frequency, Grade 1 ([6]; vismodegib 150, 104 patients): 43% (45)
- Muscle Spasm Adverse Event Frequency, Grade 2 ([6]; vismodegib 150, 104 patients): 22% (23)
- Muscle Spasm Adverse Event Frequency, Grade 3 ([6]; vismodegib 150, 104 patients): 6% (7)
- Muscle Spasm Adverse Event Frequency, Grade 4 ([6]; vismodegib 150, 104 patients): 0%
- MTD ([6]; vismodegib): 150 mg
- effect on FVC in clinical trials (FIG. 1) [7]: substantial increase in FVC
- increase in Forced Vital Capacity (FVC) ([7]; single arm IPF study, combination with pirfenidone, after six months, average): approximately 100 mL
- GIi1 mRNA inhibition [18]: less than 50%

Structure (SMILES): CCc1nc2c(C)cc(N3CCN(CC(=O)N4CC(O)C4)CC3)cn2c1N(C)c1nc(-c2ccc(F)cc2)c(C#N)s1 [zirtaxestat]
- effect on FVC in clinical trials (FIG. 1) [7]: small increase in FVC
